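Exposure lasted 48 hours, with cells grown in 96-well plates and compounds tested at five concentrations. The concentration for 50% growth inhibition is given as GI50.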 Activity calls are given as the source filed them. Cut-off read from the data, not from the text of the source: active = GI50 up to about 1.1 µM and inactive = higher.
What was measured:
Assay in all cases: DTP human tumour cell line panel, 48 h
786-0 = tested on: 786-0
CAKI-1 = tested on: CAKI-1
COLO 205 = tested on: COLO 205
DU-145 = tested on: DU-145
HCC 2998 = tested on: HCC 2998
HCT-15 = tested on: HCT-15
HL-60 = tested on: HL-60
Hs-578T = tested on: Hs-578T
K562 = tested on: K562
LOX IMVI = tested on: LOX IMVI
MDA-MB-231 = tested on: MDA-MB-231
MDA-N = tested on: MDA-N
NCI-H460 = tested on: NCI-H460
OVCAR-4 = tested on: OVCAR-4
RPMI-8226 = tested on: RPMI-8226
SF-295 = tested on: SF-295
SK-MEL-2 = tested on: SK-MEL-2
SK-MEL-5 = tested on: SK-MEL-5
SK-OV-3 = tested on: SK-OV-3
SNB-75 = tested on: SNB-75

SMILES	GI50 (786-0)	GI50 (CAKI-1)	GI50 (COLO 205)	GI50 (DU-145)	GI50 (HCC 2998)	GI50 (HCT-15) [µM]	GI50 (HL-60)	GI50 (Hs-578T)	GI50 (K562)	GI50 (LOX IMVI)	GI50 (MDA-MB-231)	GI50 (MDA-N)	GI50 (NCI-H460)	GI50 (OVCAR-4)	GI50 (RPMI-8226)	GI50 (SF-295)	GI50 (SK-MEL-2)	GI50 (SK-MEL-5)	GI50 (SK-OV-3)	GI50 (SNB-75)
CC(=O)N1CN2C(=O)CCC2c2cc(C)ccc21 (stereo not given)	> 100 µM (inactive)	> 100 µM (inactive)	> 100 µM (inactive)	> 100 µM (inactive)	> 100 µM (inactive)	> 100	> 100 µM (inactive)	> 100 µM (inactive)	> 100 µM (inactive)	> 100 µM (inactive)	> 100 µM (inactive)	> 100 µM (inactive)	> 100 µM (inactive)	> 100 µM (inactive)	> 100 µM (inactive)	> 100 µM (inactive)	> 100 µM (inactive)	> 100 µM (inactive)	> 100 µM (inactive)	> 100 µM (inactive)
CCCCCC/C=C/C#CCCCCCCCC(=O)O	> 100 µM (inactive)	> 100 µM (inactive)	> 100 µM (inactive)	> 100 µM (inactive)	> 100 µM (inactive)	> 100	> 100 µM (inactive)	> 100 µM (inactive)	> 100 µM (inactive)	> 100 µM (inactive)	> 100 µM (inactive)	> 100 µM (inactive)	> 100 µM (inactive)	> 100 µM (inactive)	> 100 µM (inactive)	> 100 µM (inactive)	> 100 µM (inactive)	> 100 µM (inactive)	> 100 µM (inactive)	> 100 µM (inactive)
CCCC(O)[C@@]1(CC)CC(C)C(O)(C2(C)C[C@H](C)[C@@H](C(CC)C(=O)C(C)[C@@H](O)[C@H](C)C3OC(O)(C(CC)C(=O)O)[C@@H](C)C(O)C3CC)O2)O1 (stereo not given in full)	0.414 µM (active)	0.486 µM (active)	0.123 µM (active)	0.0885 µM (active)	0.0897 µM (active)	1.16	0.0228 µM (active)	0.267 µM (active)	0.0955 µM (active)	0.19 µM (active)	0.492 µM (active)	0.414 µM (active)	0.191 µM (active)	0.594 µM (active)	0.0989 µM (active)	0.753 µM (active)	0.531 µM (active)	0.219 µM (active)	2.15 µM (inactive)	0.0611 µM (active)
CCOC(=O)C1(C(=O)OCC)[C@@H](c2ccccc2)C2=NO[C@@H]3CCC[C@H]1[C@H]23	89.3 µM (inactive)	44.9 µM (inactive)	29 µM (inactive)	> 100 µM (inactive)	18 µM (inactive)	56	24.3 µM (inactive)	> 100 µM (inactive)	52.5 µM (inactive)	81.1 µM (inactive)	> 100 µM (inactive)	24.5 µM (inactive)	57.7 µM (inactive)	43 µM (inactive)	23.5 µM (inactive)	51.6 µM (inactive)	55.5 µM (inactive)	24.3 µM (inactive)	53.6 µM (inactive)	47.4 µM (inactive)
CC(C)[Si](OC1=CCCCCC12C(=O)N(C)c1ccccc12)(C(C)C)C(C)C (stereo not given)	17.7 µM (inactive)	16.5 µM (inactive)	18.9 µM (inactive)	15 µM (inactive)	21.7 µM (inactive)	17.6	17.1 µM (inactive)	21.6 µM (inactive)	24.1 µM (inactive)	19.5 µM (inactive)	22.4 µM (inactive)	28.4 µM (inactive)	17.6 µM (inactive)	24.7 µM (inactive)	15.1 µM (inactive)	13.5 µM (inactive)	18.2 µM (inactive)	17.5 µM (inactive)	20.5 µM (inactive)	13.5 µM (inactive)
C=CCc1cc(C(Cc2ccccc2)NC(C)C)cc(OCc2ccccc2)c1OCc1ccccc1 (stereo not given)	16.6 µM (inactive)	15.7 µM (inactive)	17.3 µM (inactive)	16.2 µM (inactive)	13.7 µM (inactive)	16.3	14.5 µM (inactive)	18 µM (inactive)	16.8 µM (inactive)	14.8 µM (inactive)	15 µM (inactive)	13.2 µM (inactive)	15 µM (inactive)	17.4 µM (inactive)	12.9 µM (inactive)	17.8 µM (inactive)	18.6 µM (inactive)	16.6 µM (inactive)	14 µM (inactive)	13.2 µM (inactive)
O=C(OC12CC3CC(CC(C3)C1)C2)c1ccc(NCc2cc(O)ccc2O)cc1	1.15 µM (inactive)	0.301 µM (active)	0.285 µM (active)	3.85 µM (inactive)	1.7 µM (inactive)	0.435	0.0491 µM (active)	0.982 µM (active)	0.622 µM (active)	0.859 µM (active)	1.98 µM (inactive)	1.32 µM (inactive)	2.53 µM (inactive)	0.433 µM (active)	0.0966 µM (active)	2.29 µM (inactive)	1.35 µM (inactive)	1.24 µM (inactive)	2.99 µM (inactive)	0.607 µM (active)
